In patent US6316436A, “Inhibitors of prenyl-protein transferase” (Merck & Co., Inc., priority 1999, dated 2001):

Target: T1, human FPTase (Homo sapiens, UniProt P49354+P49356)
T1 construct: made in house
Experiment: In vitro inhibition of Ras farnesyl transferase (FPTase inhibition assay)
Assay type: biochemical
Conditions: 30° C.; 650 nM Ras-CVLS, 100 nM farnesyl diphosphate; recombinant FPTase; read-out: IC50 for inhibitory activity against human FPTase
Description: In Vitro Inhibition of Ras Farnesyl Transferase
Isoprenyl-protein transferase activity assays are carried out at 30° C. unless noted otherwise. A typical reaction contains (in a final volume of 50 μL): [^3 H]farnesyl diphosphate, Ras protein, 50 mM HEPES, pH 7.5, 5 mM MgCl2, 5 mM dithiothreitol, 10 μM ZnCl2, 0.1% polyethyleneglycol (PEG) (15,000-20,000 mw) and isoprenyl-protein transferase. The FPTase employed in the assay is prepared by recombinant expression as described in Omer, C. A., Kral, A. M., Diehl, R. E., Prendergast, G. C., Powers, S., Allen, C. M., Gibbs, J. B. and Kohl, N. E. (1993) Biochemistry 32:5167-5176. After thermally pre-equilibrating the assay mixture in the absence of enzyme, reactions are initiated by the addition of isoprenyl-protein transferase and stopped at timed intervals (typically 15 min) by the addition of 1 M HCl in ethanol (1 mL). The quenched reactions are allowed to stand for 15 m (to complete the precipitation process). After adding 2 mL of 100% ethanol, the reactions are vacuum-filtered through Whatman GF/C filters. Filters are washed four times with 2 mL aliquots of 100% ethanol, mixed with scintillation fluid (10 mL) and then counted in a Beckman LS3801 scintillation counter. […]

CCC12CCCCN(C1)C(=O)CCc1cncn1Cc1ccc(C#N)c(c1)Oc1cccc2c1 (racemic) [Example 1, (±) 5H-17-Ethyl-17,22-methano-18,19,20,21,23,24-hexahydro-23-oxo-6,10: 12,16-dimetheno-25H-imidazo[3,4-h]-[1,11,16]oxadiazacyclodocosane-9-carbonitrile]
IC50: ≤ 10 µM
